# Laboratory results taken from US7776872B2, “Diaminopyrimidines as P2X3 and P2X2/3 modulators” (Roche Palo Alto LLC, priority 2005, dated 2010).
# Assays:
# rat P2X3 receptor = biological target: T1, rat P2X3 receptor (Rattus norvegicus, UniProt P49654); assay: P2X3 FLIPR (Fluorometric Imaging Plate Reader) assay, CHO-K1 cells; type: cell-based; conditions: CHO-K1 cells transfected with rat P2X3; agonist α,β-meATP 1 μM; Fluo-3 calcium fluorescence
# T1 construct: expressed in transfected cells; host or cells: CHO-K1
# T1 sequence (P49654 1-397): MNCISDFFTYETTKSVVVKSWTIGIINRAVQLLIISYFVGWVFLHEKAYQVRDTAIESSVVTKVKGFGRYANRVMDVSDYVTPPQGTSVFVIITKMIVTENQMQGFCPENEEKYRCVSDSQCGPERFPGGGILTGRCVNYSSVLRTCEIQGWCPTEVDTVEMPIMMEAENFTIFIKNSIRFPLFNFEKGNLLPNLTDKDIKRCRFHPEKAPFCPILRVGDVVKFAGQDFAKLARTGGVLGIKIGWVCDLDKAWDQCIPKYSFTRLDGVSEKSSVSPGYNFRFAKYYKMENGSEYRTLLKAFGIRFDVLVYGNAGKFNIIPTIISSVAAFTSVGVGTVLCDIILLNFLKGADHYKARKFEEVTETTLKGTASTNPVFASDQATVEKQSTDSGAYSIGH
# Experimental: (§1) CHO-K1 cells were transfected with cloned rat P2X3 or human P2X2/3 receptor subunits and passaged in flasks. 18-24 hours before the FLIPR experiment, cells were released from their flasks, centrifuged, and resuspended in nutrient medium at 2.5×10^5 cells/ml. The cells were aliquoted into black-walled 96-well plates at a density of 50,000 cells/well and incubated overnight in 5% CO2 at 37° C. On the day of the experiment, cells were washed in FLIPR buffer (calcium- and magnesium-free Hank's balanced salt solution, 10 mM HEPES, 2 mM CaCl2, 2.5 mM probenecid; FB). Each well received 100 μl FB and 100 μl of the fluorescent dye Fluo-3 AM [2 μM final conc.]. […]
# (§2) Test compounds (dissolved in DMSO at 10 mM and serially diluted with FB) or vehicle were added to each well (25 μl of a 4X solution) and allowed to equilibrate for 20 minutes at room temperature. The plates were then placed in the FLIPR and a baseline fluorescence measurement (excitation at 488 nm and emission at 510-570 nm) was obtained for 10 seconds before a 100 µl/well agonist or vehicle addition. […] Fluorescence was measured for an additional 2 minutes at 1 second intervals after agonist addition. A final addition of ionomycin (5 μM, final concentration) was made to each well of the FLIPR test plate to establish cell viability and maximum fluorescence of dye-bound cytosolic calcium. […]
# human P2X2/3 receptor = biological target: T2, human P2X2/3 receptor (Homo sapiens, UniProt P56373+Q9UBL9); assay: P2X2/3 FLIPR (Fluorometric Imaging Plate Reader) assay, CHO-K1 cells; type: cell-based; conditions: CHO-K1 cells transfected with human P2X2/3; agonist α,β-meATP 5 μM; Fluo-3 calcium fluorescence
# T2 construct: expressed in transfected cells; host or cells: CHO-K1
# T2 sequence (Q9UBL9 1-471): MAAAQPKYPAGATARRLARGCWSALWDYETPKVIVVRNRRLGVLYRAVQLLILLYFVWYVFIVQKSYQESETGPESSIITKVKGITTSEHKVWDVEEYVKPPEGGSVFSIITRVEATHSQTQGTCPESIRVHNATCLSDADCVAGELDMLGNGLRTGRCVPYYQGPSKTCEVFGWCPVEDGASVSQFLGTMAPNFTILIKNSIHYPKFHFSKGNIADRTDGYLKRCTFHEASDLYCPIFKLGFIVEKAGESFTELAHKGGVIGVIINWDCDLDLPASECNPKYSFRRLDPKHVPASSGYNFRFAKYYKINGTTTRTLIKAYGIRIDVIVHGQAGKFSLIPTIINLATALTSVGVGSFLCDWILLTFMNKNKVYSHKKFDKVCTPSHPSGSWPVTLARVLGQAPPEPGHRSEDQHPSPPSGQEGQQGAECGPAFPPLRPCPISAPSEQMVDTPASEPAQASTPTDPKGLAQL
# T2 sequence (P56373 1-397): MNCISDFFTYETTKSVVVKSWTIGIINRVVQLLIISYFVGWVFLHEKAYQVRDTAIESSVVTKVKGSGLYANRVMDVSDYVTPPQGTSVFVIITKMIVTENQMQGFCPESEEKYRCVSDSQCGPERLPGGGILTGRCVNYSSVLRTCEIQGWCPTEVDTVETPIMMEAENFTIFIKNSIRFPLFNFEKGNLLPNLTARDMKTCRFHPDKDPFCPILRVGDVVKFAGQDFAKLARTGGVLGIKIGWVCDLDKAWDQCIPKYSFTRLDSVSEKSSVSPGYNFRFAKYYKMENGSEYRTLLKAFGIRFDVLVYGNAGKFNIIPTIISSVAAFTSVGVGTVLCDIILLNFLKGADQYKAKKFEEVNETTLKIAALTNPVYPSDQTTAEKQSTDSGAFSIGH
# Experimental: as §1, §2
SMILES,melting point,pIC50 for the P2X3 receptor (rat P2X3 receptor),pIC50 for the P2X2/3 receptor (human P2X2/3 receptor)
"CC(C)c1cc2ncccc2cc1Oc1cnc(N)nc1N [5-(7-Isopropyl-quinolin-6-yloxy)-pyrimidine-2,4-diamine]",206.9 to 208.2 °C,approximately 7.42,approximately 7.30
"Cc1cccc2cc(C(C)C)c(Oc3cnc(N)nc3N)cc12 [Compound 1, 5(3-Isopropyl-8-methyl-naphthalen-2-yloxy)-pyrimidine-2,4-diamine]",148 °C,,
"COc1ccc2cc(Oc3cnc(N)nc3N)c(C(C)C)cc2c1 [Compound 4, 5-(3-Isopropyl-6-methoxy-naphthalen-2-yloxy)-pyrimidine-2,4-diamine]",170 to 172 °C,,
"CC(C)c1cc2cccnc2cc1Oc1cnc(N)nc1N [Compound 9, 5-(6-lsopropyl-quinolin-7-yloxy)-pyrimidine-2,4-diamine]",276.3 to 278 °C,,
"CC(C)c1cc2ncccc2cc1Oc1cnc(NC(CO)CO)nc1N [Compound 11, 2-[4-Amino-5-(7-isopropyl-quinolin-6-yloxy)-pyrimidin-2-ylamino]-propane-1,3-diol]",171.9 to 174.4 °C,,
